In patent US5571786A, “Use of protein C or the activation peptide of protein C for preparing a pharmaceutical preparation” (Immuno Aktiengesellschaft, priority 1990, dated 1996):
Where “and” joins values, the source holds several entries; their conditions need not be identical. Equal entries are not always repeated.

Assays:
inflamed rat paw model = test: inflamed rat paw model: pain threshold after local carrageenan (Randall and Selitto); assay type: in vivo; conditions: for antagonism of the anti-nociceptive effect of protein C: β-blocking agent given with protein C; for Pain threshold: 3 hrs after carrageenan, protein C 800 U/kg
Description: See, Kirchhoff et al., Neuroscience Lett. 111:206-210 (1990). Subcutaneous administration of carrageenan into the rat paw produces an inflammatory edema characterized by infiltration of neutrophils, plasma extravasation, release and synthesis of histamine, bradykinins and prostaglandin E2. Id. As such, the rat paw is a recognized model of the inflammatory process and may be utilized for studying the nociceptive effects attendant thereto. Id. Thus, the rat paw provides a recognized model for evaluating the anti-nociceptive effects of protein C and/or the activation peptide of protein C according to the present invention.
The pain threshold was measured in a manner analogous to the method described by Randall and Selitto (Randall LO and Selitto JJ: A method for measurement of analgesic activity on inflamed tissue, Arch. Int. Pharmacodyn. 111, 409-419, 1957). To this end, a mercury manometer was connected to a 10 ml syringe whose plunger was equipped with a short bullet-shaped peg. Increasing pressure was applied to the rat's paw through this syringe (20 mmHg/s). The pain threshold was defined as the pressure in mmHg required to induce a flight (struggle) reaction.
Female Sprague-Dawley rats weighing between 250 and 350 g were used. Inflammation was produced by the intraplanter (i.pl.) injection of 3 mg carrageenan (Sigma Chemical Co., Cat. No., C-1013) suspended in 100 μl isotonic saline solution (0.9%) into the rat's paw.
The pain threshold was measured before (control value) and every hour up to six hours after the injection of carrageenan. The pain threshold measured after carrageenan injection was expressed in percent of the control value.
Unless otherwise specified, protein C was intravenously injected into a vein of the tail immediately upon the carrageenan injection. The injection volume was 2 ml/kg.
A dose response curve for protein C administered i.v. and protein C (i.v.) immediately followed by a solution of 1 mg/kg antibody HPC-4 (i.v.) was determined. The experiments were carried out essentially as set forth in Example 4.
The anti-nociceptive effects of the activation peptide of protein C (SEQ. ID. NO. 1) prepared as described in Example 7 were determined essentially as described in Examples 4 and 6. In the test animals, the […], each, in a constant injection volume of 2 ml/kg, simultaneously with intraplantar (i.pl.) administration of carrageenan into the rat's paw to induce an inflammatory response and pain. In a second set of test animals, antibody HPC-4 (1 mg/kg) was administered i.v. immediately following i.v. administration of the peptide (SEQ. ID. NO. 1). The anti-nociceptive effects of the peptide (SEQ. ID. NO. 1) administration and antagonism thereof by antibody HPC-4 as measured 6 hours later are shown in FIG. 3.

perivascular leukocytes = test: histological examination of the rat paws; assay type: in vivo; conditions: rat paws after protein C, compared to untreated animals
Description: Thus, protein C appears to have an effect on vessel permeability, which allows the migration of leukocytes through the blood vessel into the perivascular region.

[1] = tested on: histamine-induced enhanced vascular permeability; test: histamine-induced enhanced vascular permeability (Evan's Blue wheals); assay type: in vivo, guinea pigs
Experimental: (§1) The effect of protein C on capillary leakage in guinea pigs was studied in order to confirm the efficacy of protein C in antagonizing enhanced vessel permeability in anesthetized guinea pigs. The study was carried out as follows:
(§2) After intravenous administration of Evan's Blue, anesthetized guinea pigs received either a protein C concentrate or a formulation buffer. Thereafter, the test animals were treated with histamine or thrombin intracutaneously to induce enhanced vessel permeability, or with saline as a control. The animals were then examined visually for the occurrence of discoloration of the resulting wheals. The results are depicted in FIG. 4 (histamine treatment, protein C or saline), FIG. 5 (thrombin treatment, protein C or saline) and FIG. 6 (thrombin treatment, buffer or saline).
(§3) In these studies, a colorless wheal was recorded as a negative observation (i.e., no disturbance in permeability), whereas a blue skin coloration at the injection site was defined as a positive observation (i.e. increased vessel permeability). The percentage of positive wheals among total wheals produced by the same substance and does within each group of treated animals (n=12 per treatment group) was calculated. […]

[2] = tested on: thrombin-induced enhanced vascular permeability; test: thrombin-induced enhanced vascular permeability (Evan's Blue wheals); assay type: in vivo, guinea pigs
Experimental: as §1, §2, §3

[3] = protein C activity, aminolytic assay after activation by Protac; assay type: biochemical; conditions: finished lyophilized preparation; 1 unit = protein C activity in 1 ml normal plasma
Experimental: The prothrombin complex concentrate was dissolved in the absorption buffer of Example 1, with about 10 g of the prothrombin complex concentrate being employed for a 20 ml monoclonal antibody column. Subsequently, the dissolved prothrombin complex concentrate was filtered, centrifuged at 20,000 r.p.m. for 15 min. and sterilely filtered through a 0.8 μm filter. The sterilely filtered and dissolved prothrombin complex concentrate was applied to the column at a flow rate of 10 ml/h. Subsequently, the column was washed free of protein with the washing buffer of Example 1, the bound protein C was eluted by means of the elution buffer of Example 1 at a flow rate of 5 ml/h and the fractions containing eluted protein C were collected and pooled. The eluted protein C was dialyzed against a buffer (0.2 mol/1 Tris, 0.15 mol glycine and 1 mmol EDTA, pH 8.3). Protein C antigen concentration was determined using the method described by Laurell, and protein C activity was determined using Protac activation.
The lyophilized, virus inactivated material was then dissolved in a sterile isotonic NaCl solution and any antibodies or serum amyloid P potentially present in the preparation were eliminated by means of ion exchange chromatography on a Q-Sepharose column. […] Neither murine immunoglobulin nor Factors II, VII, IX and X could be detected. […]

[4] = tested on: thrombus formation on prosthetic vascular grafts; conditions: infusion; Gruber et al. 1989; cited from earlier work
endotoxin shock = conditions: Taylor et al. 1987; cited from earlier work
coronary blood flow = conditions: intracoronary administration; cited from earlier work

Compound: CC(Cc1ccc(O)cc1)NCC(O)c1cc(O)cc(O)c1 (centres unmarked) [fenoterol, reference compound]
- anti-nociceptive effect (inflamed rat paw model; i.v., either 5 mg/kg at the beginning of the assay or 3 mg/kg at the 3 hr time point): marked anti-nociceptive effect

Compound: CC(C)NCC(O)COc1cccc2[nH]ccc12 (centres unmarked) [pindolol, reference compound]
- antagonism of the effect of protein C in sympathectomized animals (inflamed rat paw model; reserpine and alpha-methyl-p-tyrosine treated): completely antagonizes the effect of protein C
- antagonism of the anti-nociceptive effect of protein C (inflamed rat paw model): antagonize the effect of protein C in a dose-dependent manner

Compound: NH2 -Asp-Thr-Glu-Asp-Gln-Glu-Asp-Gln-Val-Asp-Pro-Arg-COOH (H-DTEDQEDQVDPR-OH) [activation peptide of protein C]
- anti-nociceptive effect (inflamed rat paw model; peptide i.v. 3.125 to 100 μg/kg, measured 6 hours later, FIG. 3): has an anti-nociceptive effect

Compound: protein C: Highly purified human protein C zymogen from prothrombin complex concentrate, purified by monoclonal antibody affinity chromatography, virus inactivated
- Pain threshold (inflamed rat paw model; % of the pain threshold (control value)): 65 ± 2.0% and 60 ± 6%
- Pain threshold (inflamed rat paw model; animals treated with reserpine and alpha-methyl-p-tyrosine): 106.7 ± 18.1%
- anti-nociceptive effect (inflamed rat paw model; protein C i.v. immediately upon carrageenan, 8 to 800 U/kg, FIG. 1): significant, dose-dependent anti-nociceptive effect
- signs of inflammation, such as oedema (inflamed rat paw model; protein C intravenously, carrageenan intraplantar): signs of inflammation, such as oedema, were reduced
- anti-nociceptive effect after chemical sympathectomy (inflamed rat paw model; reserpine 7.5 mg/kg i.p. and alpha-methyl-p-tyrosine 250 mg/kg i.p.): still acts as a highly effective anti-nociceptive
- anti-nociceptive effect (inflamed rat paw model; subcutaneous administration): also detectable with subcutaneous administration
- number of perivascular leukocytes (perivascular leukocytes): reduced number of perivascular leukocytes compared to the untreated animals
- shift of the histamine dose-response curve to the right (factor) ([1]; 800 IU protein C/Kg i.v., % positive wheals, FIG. 4): 4
- effect on histamine-increased endothelial permeability ([1]; pretreatment with protein C): effective in preventing the effects of both histamine and thrombin on increased endothelial permeability
- shift of the thrombin dose-response curve to the right (factor) ([2]; 800 IU protein C/Kg i.v., % positive wheals, FIG. 5): 9
- effect on thrombin-increased endothelial permeability ([2]; pretreatment with protein C): effective in preventing the effects of both histamine and thrombin on increased endothelial permeability
- specific activity [3]: 14 units protein C per mg

Compound: CC(C)NCC(O)COc1cccc2ccccc12 (centres unmarked) [propranolol, reference compound]
- antagonism of the anti-nociceptive effect of protein C (inflamed rat paw model): antagonizes the anti-nociceptive effect of protein C

Compound: activated protein C
- thrombotic occlusion [4]: Thrombotic occlusion was prevented
- protection against coagulopathic and lethal effects of endotoxin shock (endotoxin shock): protect animals against the coagulopathic and lethal effects of endotoxin shock
- coronary blood flow (coronary blood flow): increase in coronary blood flow
